Assays:
[1] = target: 5'-AMP-activated protein kinase catalytic subunit alpha-1 (Homo sapiens, UniProt Q13131); experiment: Cellular mechanistic pACC assay using IMR-32 neuroblastoma cells; type: cell-based
[2] = tested on: Tyrosine-protein kinase ABL1 (Homo sapiens), P00519 [Y253F]; conditions: Compound concentration 1000.0 nM
[3] = target: T1, Aurora kinase A (Homo sapiens) (UniProt O14965); conditions: Compound concentration 1000.0 nM
T1 sequence (whole entry): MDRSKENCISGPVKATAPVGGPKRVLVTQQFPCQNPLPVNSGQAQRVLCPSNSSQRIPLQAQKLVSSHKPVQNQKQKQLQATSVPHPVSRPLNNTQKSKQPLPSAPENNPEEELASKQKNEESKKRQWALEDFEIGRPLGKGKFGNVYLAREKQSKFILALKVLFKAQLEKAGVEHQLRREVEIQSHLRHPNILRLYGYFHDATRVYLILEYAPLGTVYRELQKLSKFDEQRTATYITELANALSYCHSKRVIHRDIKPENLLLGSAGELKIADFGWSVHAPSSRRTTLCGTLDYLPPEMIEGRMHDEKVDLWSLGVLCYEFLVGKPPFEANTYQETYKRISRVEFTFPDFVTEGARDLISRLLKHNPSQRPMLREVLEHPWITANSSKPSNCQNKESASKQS

[4] = target: Cyclin-dependent kinase 4 (Homo sapiens) (UniProt P11802); conditions: Compound concentration 1000.0 nM
[5] = target: Cyclin-dependent kinase-like 3 (Homo sapiens) (UniProt Q8IVW4); conditions: Compound concentration 1000.0 nM
[6] = target: Casein kinase I isoform gamma-1 (Homo sapiens) (UniProt Q9HCP0); conditions: Compound concentration 1000.0 nM
[7] = target: T2, Myotonin-protein kinase (Homo sapiens) (UniProt Q09013); conditions: Compound concentration 1000.0 nM
T2 sequence (whole entry): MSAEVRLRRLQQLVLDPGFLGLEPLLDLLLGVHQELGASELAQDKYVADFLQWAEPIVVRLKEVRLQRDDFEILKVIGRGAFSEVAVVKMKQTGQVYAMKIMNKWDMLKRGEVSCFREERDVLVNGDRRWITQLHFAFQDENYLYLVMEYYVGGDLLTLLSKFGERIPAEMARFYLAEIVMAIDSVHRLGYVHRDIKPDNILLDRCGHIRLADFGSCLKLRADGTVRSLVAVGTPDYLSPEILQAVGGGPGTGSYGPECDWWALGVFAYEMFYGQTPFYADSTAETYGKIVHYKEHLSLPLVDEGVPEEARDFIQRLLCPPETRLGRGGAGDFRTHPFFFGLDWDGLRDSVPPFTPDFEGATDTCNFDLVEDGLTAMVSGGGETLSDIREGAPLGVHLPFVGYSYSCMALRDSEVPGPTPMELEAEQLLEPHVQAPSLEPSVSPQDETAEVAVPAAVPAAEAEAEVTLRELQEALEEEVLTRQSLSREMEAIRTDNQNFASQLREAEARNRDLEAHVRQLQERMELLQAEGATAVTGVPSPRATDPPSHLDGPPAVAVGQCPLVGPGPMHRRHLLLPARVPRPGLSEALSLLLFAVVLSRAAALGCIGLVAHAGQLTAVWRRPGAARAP

[8] = tested on: Epidermal growth factor receptor (Homo sapiens), P00533 [UNDEFINED MUTATION]; conditions: Compound concentration 1000.0 nM
[9] = target: Tyrosine-protein kinase Fgr (Homo sapiens) (UniProt P09769); conditions: Compound concentration 1000.0 nM
[10] = target: Mitogen-activated protein kinase 8 (Homo sapiens) (UniProt P45983); conditions: Compound concentration 1000.0 nM
[11] = tested on: Mast/stem cell growth factor receptor Kit (Homo sapiens), P10721 [A829P]; conditions: Compound concentration 1000.0 nM
[12] = tested on: Mast/stem cell growth factor receptor Kit (Homo sapiens), P10721 [D816H]; conditions: Compound concentration 1000.0 nM
[13] = target: Serine/threonine-protein kinase LATS1 (Homo sapiens) (UniProt O95835); conditions: Compound concentration 1000.0 nM
[14] = target: Serine/threonine-protein kinase LATS2 (Homo sapiens) (UniProt Q9NRM7); conditions: Compound concentration 1000.0 nM
[15] = target: Serine/threonine-protein kinase pim-3 (Homo sapiens) (UniProt Q86V86); conditions: Compound concentration 1000.0 nM
[16] = target: Serine/threonine-protein kinase PLK3 (Homo sapiens) (UniProt Q9H4B4); conditions: Compound concentration 1000.0 nM
[17] = target: Serine/threonine-protein kinase RIO2 (Homo sapiens) (UniProt Q9BVS4); conditions: Compound concentration 1000.0 nM
[18] = target: T3, Serine/threonine-protein kinase TBK1 (Homo sapiens) (UniProt Q9UHD2); conditions: Compound concentration 1000.0 nM
T3 sequence (whole entry): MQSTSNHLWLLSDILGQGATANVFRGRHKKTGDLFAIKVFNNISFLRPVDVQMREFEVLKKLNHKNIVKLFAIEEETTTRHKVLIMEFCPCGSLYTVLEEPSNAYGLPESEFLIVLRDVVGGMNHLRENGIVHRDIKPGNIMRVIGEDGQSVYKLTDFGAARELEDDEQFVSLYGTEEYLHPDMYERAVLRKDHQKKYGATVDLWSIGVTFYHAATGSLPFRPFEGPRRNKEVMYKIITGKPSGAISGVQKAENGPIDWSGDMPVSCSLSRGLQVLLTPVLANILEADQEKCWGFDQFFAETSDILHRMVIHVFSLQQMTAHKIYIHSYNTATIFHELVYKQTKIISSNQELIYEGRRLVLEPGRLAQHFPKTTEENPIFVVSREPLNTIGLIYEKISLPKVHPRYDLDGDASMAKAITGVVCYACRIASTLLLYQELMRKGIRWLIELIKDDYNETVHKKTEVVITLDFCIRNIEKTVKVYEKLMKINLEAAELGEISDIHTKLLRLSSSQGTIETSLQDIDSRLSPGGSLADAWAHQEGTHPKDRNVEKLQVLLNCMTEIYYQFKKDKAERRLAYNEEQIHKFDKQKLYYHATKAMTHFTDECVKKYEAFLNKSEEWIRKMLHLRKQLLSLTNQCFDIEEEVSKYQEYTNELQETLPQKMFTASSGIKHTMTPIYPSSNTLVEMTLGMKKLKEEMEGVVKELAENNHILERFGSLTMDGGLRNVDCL

[19] = target: Serine/threonine-protein kinase VRK2 (Homo sapiens) (UniProt Q86Y07); conditions: Compound concentration 1000.0 nM
Serine/threonine-protein kinase VRK2 (Homo sapiens), sequence (Q86Y07 whole entry): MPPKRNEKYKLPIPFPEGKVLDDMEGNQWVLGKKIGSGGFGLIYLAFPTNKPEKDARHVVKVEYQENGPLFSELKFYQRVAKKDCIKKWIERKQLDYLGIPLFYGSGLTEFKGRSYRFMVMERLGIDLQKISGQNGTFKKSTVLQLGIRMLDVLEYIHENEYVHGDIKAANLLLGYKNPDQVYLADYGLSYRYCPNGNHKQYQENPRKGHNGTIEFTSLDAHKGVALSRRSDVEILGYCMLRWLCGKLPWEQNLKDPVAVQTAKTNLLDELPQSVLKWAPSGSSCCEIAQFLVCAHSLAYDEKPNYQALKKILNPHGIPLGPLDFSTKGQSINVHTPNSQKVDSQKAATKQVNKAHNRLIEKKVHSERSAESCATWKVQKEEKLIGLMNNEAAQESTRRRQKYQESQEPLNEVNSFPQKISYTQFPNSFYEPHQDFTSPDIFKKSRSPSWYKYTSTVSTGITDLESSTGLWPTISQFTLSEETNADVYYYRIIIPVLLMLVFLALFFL

Serine/threonine-protein kinase LATS1 (Homo sapiens), sequence (O95835 whole entry): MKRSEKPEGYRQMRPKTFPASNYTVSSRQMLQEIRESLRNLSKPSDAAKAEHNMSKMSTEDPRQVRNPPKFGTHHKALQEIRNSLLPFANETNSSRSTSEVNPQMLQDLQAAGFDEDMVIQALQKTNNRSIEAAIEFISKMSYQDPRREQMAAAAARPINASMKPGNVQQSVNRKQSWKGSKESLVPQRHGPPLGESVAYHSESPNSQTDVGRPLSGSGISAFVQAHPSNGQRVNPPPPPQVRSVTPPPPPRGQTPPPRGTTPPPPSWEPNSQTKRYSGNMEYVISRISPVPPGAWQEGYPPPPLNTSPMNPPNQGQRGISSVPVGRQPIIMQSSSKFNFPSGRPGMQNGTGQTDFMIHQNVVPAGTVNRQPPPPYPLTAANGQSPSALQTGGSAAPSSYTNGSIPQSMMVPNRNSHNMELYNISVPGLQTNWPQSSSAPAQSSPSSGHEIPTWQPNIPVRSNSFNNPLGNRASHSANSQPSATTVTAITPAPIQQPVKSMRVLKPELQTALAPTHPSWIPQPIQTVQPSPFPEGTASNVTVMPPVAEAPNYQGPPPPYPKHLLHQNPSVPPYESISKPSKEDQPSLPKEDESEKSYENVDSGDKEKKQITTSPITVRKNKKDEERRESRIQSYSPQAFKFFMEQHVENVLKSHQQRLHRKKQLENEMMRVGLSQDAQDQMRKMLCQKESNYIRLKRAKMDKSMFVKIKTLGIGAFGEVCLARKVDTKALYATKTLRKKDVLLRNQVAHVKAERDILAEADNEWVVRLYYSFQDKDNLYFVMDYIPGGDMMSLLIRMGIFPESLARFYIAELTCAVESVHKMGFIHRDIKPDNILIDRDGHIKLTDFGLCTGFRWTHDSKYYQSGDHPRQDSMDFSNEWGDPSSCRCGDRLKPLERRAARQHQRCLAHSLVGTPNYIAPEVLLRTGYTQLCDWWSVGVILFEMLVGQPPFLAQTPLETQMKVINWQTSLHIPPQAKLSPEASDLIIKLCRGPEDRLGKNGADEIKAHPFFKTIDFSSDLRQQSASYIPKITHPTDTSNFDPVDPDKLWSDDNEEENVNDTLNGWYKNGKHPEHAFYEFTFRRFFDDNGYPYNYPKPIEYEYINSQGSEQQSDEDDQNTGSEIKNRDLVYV
Tyrosine-protein kinase Fgr (Homo sapiens), sequence (P09769 2-529 limits assumed): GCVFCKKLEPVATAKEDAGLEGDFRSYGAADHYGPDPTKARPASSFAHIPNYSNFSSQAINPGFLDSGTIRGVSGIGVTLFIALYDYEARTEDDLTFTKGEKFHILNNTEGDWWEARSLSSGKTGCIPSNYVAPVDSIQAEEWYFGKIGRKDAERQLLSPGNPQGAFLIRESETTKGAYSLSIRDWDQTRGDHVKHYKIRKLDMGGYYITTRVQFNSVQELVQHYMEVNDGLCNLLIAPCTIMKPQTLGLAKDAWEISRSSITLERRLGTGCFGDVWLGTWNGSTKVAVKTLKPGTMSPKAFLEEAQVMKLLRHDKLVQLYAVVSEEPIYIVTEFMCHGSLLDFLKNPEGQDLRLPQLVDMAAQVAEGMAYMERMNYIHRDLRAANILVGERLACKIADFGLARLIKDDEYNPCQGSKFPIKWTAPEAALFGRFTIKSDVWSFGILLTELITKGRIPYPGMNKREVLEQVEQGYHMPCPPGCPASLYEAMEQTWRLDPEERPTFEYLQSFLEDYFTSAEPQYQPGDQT
Casein kinase I isoform gamma-1 (Homo sapiens), sequence (Q9HCP0 whole entry, looked up, canonical isoform): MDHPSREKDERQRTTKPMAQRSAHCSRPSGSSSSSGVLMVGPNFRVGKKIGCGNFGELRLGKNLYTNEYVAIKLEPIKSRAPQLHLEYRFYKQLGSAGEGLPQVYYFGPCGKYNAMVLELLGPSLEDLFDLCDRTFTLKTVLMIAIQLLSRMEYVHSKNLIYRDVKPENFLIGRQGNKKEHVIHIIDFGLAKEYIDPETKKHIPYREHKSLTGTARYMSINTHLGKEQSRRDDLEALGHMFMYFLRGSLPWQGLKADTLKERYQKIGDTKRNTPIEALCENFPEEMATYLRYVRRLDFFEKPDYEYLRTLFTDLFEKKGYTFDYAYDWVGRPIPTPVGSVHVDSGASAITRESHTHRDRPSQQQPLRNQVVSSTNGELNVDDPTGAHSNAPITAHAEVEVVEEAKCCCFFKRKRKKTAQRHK
Mitogen-activated protein kinase 8 (Homo sapiens), sequence (P45983 whole entry): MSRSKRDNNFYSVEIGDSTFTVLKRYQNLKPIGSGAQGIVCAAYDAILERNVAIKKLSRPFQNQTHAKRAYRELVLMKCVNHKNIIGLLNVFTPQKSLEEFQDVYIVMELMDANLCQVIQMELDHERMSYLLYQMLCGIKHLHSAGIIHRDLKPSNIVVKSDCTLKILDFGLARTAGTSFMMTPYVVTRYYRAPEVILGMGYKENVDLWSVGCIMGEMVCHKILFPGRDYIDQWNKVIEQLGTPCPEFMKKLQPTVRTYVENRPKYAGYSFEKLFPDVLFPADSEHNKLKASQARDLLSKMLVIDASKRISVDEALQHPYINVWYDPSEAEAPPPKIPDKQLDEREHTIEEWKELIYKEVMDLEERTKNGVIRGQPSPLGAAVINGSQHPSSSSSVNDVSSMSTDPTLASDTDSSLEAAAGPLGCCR
Mast/stem cell growth factor receptor Kit (Homo sapiens), P10721 [A829P], sequence (P10721 whole entry A829P): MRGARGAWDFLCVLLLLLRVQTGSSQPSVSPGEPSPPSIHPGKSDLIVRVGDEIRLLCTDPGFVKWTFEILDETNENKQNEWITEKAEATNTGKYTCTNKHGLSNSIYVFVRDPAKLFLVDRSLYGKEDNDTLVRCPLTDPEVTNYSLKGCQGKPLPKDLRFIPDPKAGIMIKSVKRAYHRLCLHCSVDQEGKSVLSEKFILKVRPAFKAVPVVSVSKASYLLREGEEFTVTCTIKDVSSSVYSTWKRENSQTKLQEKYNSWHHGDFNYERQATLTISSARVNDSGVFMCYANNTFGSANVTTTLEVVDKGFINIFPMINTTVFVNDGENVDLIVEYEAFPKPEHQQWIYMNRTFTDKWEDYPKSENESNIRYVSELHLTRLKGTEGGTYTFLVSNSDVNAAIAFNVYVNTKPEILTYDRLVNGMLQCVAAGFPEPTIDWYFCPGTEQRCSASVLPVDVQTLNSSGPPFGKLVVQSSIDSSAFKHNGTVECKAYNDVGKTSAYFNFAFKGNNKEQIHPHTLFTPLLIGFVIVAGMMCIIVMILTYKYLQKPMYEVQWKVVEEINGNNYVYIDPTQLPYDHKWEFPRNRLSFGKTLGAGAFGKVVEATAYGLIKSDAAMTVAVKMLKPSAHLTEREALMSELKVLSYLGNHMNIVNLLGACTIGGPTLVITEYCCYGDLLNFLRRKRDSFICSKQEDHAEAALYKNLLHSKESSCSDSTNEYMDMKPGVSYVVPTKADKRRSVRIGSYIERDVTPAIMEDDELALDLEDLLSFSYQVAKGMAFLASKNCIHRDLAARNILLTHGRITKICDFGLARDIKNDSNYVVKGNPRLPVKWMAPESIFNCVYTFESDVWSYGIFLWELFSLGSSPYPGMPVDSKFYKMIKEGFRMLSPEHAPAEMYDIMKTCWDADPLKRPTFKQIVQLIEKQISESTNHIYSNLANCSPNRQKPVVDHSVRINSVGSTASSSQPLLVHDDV
5'-AMP-activated protein kinase catalytic subunit alpha-1, sequence (Q13131 whole entry): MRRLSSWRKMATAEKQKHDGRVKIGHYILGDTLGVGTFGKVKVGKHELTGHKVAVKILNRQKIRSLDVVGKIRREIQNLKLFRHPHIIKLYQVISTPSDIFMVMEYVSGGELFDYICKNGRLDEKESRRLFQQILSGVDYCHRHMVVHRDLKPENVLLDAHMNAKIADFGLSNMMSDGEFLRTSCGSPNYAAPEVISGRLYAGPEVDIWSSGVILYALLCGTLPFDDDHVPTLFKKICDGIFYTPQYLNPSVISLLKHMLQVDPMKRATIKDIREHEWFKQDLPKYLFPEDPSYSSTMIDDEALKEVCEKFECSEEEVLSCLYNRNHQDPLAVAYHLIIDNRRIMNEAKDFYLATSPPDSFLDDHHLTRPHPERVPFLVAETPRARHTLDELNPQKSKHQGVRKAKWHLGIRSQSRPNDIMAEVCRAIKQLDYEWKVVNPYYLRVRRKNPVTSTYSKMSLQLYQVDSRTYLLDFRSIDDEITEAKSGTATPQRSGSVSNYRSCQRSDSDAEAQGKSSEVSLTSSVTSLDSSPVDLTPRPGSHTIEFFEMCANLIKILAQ
Mast/stem cell growth factor receptor Kit (Homo sapiens), P10721 [D816H], sequence (P10721 whole entry D816H): as the sequence (P10721 whole entry A829P) above, with D816H, P829A counted along it

SMILES	IC50 [1]	residual activity [2]	residual activity [3]	residual activity [4]	residual activity [5]	residual activity [6]	residual activity [7]	residual activity [8]	residual activity [9]	residual activity [10]	residual activity [11]	residual activity [12]	residual activity [13]	residual activity [14]	residual activity [15]	residual activity [16]	residual activity [17]	residual activity [18]	residual activity [19]
CCc1ccccc1C(=O)Nc1n[nH]c2c(C)c(F)c(C3C(C#N)=C(C)N(C)C(C)=C3C#N)cc12 [BAY-3827]	150 nM	85%	51%	75%	87%	95%	100%	100%	51%	71%	100%	100%	100%	67%	100%	100%	93%	77%	100%
CC1=C(C#N)C(c2ccc3c(c2)c(NC(=O)c2ccccc2C)nn3C)C(C#N)=C(C)N1 [BAY-974]	> 30000 nM (not active)	82%	61%	79%	79%	100%	99%	93%	92%	88%	64%	64%	85%	100%	100%	80%	65%	69%	72%

From ChEMBL document CHEMBL4507319 (2021)
